The compounds below were run against T1, BTK enzyme (recombinant full-length BTK, hBTK) (Homo sapiens, UniProt Q06187) (assay: Btk enzyme activity assay (LANCE TR-FRET)). Conditions: 60 minute compound & enzyme incubation, 50 pM hBTK, 25 μM ATP, read-out: BTK binding IC50.
T1 construct: recombinant protein from baculovirus-transfected Sf9 cells: full-length BTK, 6HIS-tag cleaved; 6HIS (cleaved yes); made in house; host or cells: baculovirus-transfected Sf9 cells
Type: biochemical
Protocol: BTK enzymatic activity was determined with the LANCE (Lanthanide Chelate Excite) TR-FRET (Time-resolved fluorescence resonance energy transfer) assay. In this assay, the potency (IC50) of each compound was determined from an eleven point (1:3 serial dilution; final compound concentration range in assay from 1 μM to 0.017 nM) titration curve using the following outlined procedure. To each well of a black non-binding surface Corning 384-well microplate (Corning Catalog #3820), 5 nL of compound (2000 fold dilution in final assay volume of 10 μL) was dispensed, followed by the addition of 7.5 μL of 1× kinase buffer (50 mM Hepes 7.5, 10 mM MgCl2, 0.01% Brij-35, 1 mM EGTA, 0.05% BSA & 1 mM DTT) containing 5.09 pg/μL (66.67 pM) of BTK enzyme (recombinant protein from baculovirus-transfected Sf9 cells: full-length BTK, 6HIS-tag cleaved). Following a 60 minute compound & enzyme incubation, each reaction was initiated by the addition of 2.5 μL 1× kinase buffer containing 8 μM biotinylated “AS” peptide (Biotin-EQEDEPEGDYFEWLE-NH2), and 100 μM ATP. The final reaction in each well of 10 μL consists of 50 pM hBTK, 2 μM biotin-AS-peptide, and 25 μM ATP. Phosphorylation reactions were allowed to proceed for 120 minutes. Reactions were immediately quenched by the addition of 20 uL of 1× quench buffer (15 mM EDTA, 25 mM Hepes 7.3, and 0.1% Triton X-100) containing detection reagents (0.626 nM of LANCE-Eu-W1024-anti-phosphoTyrosine antibody, PerkinElmer and 86.8 nM of Streptavidin-conjugated Dylight 650, Dyomics/ThermoFisher Scientific). After 60 minutes incubation with detection reagents, reaction plates were read on a PerkinElmer EnVision plate reader using standard TR-FRET protocol. Briefly, excitation of donor molecules (Eu-chelate:anti-phospho-antibody) with a laser light source at 337 nm produces energy that can be transferred to Dylight-650 acceptor molecules if this donor:acceptor pair is within close proximity. Fluorescence intensity at both 665 nm (acceptor) and 615 nm (donor) are measured and a TR-FRET ratio calculated for each well (acceptor intensity/donor intensity). IC50 values were determined by 4 parameter robust fit of TR-FRET ratio values vs. (Log10) compound concentrations.

T1 sequence (Q06187 whole entry): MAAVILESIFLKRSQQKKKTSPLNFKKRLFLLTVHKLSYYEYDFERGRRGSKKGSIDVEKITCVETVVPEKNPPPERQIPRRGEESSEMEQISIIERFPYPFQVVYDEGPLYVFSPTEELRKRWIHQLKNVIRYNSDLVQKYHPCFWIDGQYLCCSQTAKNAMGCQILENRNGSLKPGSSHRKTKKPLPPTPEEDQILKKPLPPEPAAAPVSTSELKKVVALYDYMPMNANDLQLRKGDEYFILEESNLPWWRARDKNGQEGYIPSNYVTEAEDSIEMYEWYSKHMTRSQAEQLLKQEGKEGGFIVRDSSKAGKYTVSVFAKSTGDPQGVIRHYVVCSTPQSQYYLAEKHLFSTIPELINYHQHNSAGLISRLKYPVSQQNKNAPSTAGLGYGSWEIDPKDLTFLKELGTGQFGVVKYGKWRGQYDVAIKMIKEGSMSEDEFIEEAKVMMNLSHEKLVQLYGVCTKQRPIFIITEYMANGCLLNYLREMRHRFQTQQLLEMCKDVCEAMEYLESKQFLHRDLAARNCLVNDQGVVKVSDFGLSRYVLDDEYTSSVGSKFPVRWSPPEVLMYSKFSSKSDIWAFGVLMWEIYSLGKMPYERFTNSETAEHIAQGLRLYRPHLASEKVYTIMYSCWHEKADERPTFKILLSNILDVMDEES

**Q.** How did the IC50 turn out when N#CN1CCC[C@@H](c2nc(-c3ccc(C(=O)Nc4cc(C(F)(F)F)ccn4)cc3)c3c(N)ncc(Cl)n23)C1 [Example 17, 4-{8-amino-5-chloro-3-[(3R)-1-cyanopiperidin-3-yl]imidazo[1,5-a]pyrazin-1-yl}-N-[4-(trifluoromethyl)pyridin-2-yl]benzamide] was run?
**A.** 0.19 nM

**Q.** Which IC50 does the source give for C[C@H]1CO[C@@H](c2nc(-c3ccc(C(=O)Nc4cc(C(F)(F)F)ccn4)cc3F)c3c(N)ncc(Cl)n23)CN1C#N [Example 20, 4-{8-amino-5-chloro-3-[(2R,5S)-4-cyano-5-methylmorpholin-2-yl]imidazo[1,5-a]pyrazin-1-yl}-3-fluoro-N-[4-(trifluoromethyl)pyridin-2-yl]benzamide] here?
**A.** 0.48 nM

**Q.** CCOc1cc(C(=O)Nc2cc(C(F)(F)F)ccn2)ccc1-c1nc([C@H]2CN(C#N)[C@@H](C)CO2)n2c(Cl)cnc(N)c12 [Example 21, 4-{8-amino-5-chloro-3-[(2R,5S)-4-cyano-5-methylmorpholin-2-yl]imidazo[1,5-a]pyrazin-1-yl}-3-ethoxy-N-[4-(trifluoromethyl)pyridin-2-yl]benzamide] was tested. Which IC50 did it give?
**A.** 1.5 nM

**Q.** Which IC50 does the source give for Cc1nccn2c([C@@H]3CCCN3C#N)nc(-c3ccc(C(=O)Nc4ccccn4)cc3)c12 [Example 5, 4-{3-[(2S)-1-cyanopyrrolidin-2-yl]-8-methylimidazo[1,5-a]pyrazin-1-yl}-N-pyridin-2-ylbenzamide] here?
**A.** 371 nM

**Q.** With N#CN1CCC[C@@H](c2nc(-c3ccc(C(=O)Nc4cc(C(F)(F)F)ccn4)cc3)c3c(N)nccn23)C1 [Example 1, 4-{8-amino-3-[(3R)-1-cyanopiperidin-3-yl]imidazo[1,5-a]pyrazin-1-yl}-N-[4-(trifluoromethyl)pyridin-2-yl]benzamide] as the compound, how does the IC50 read?
**A.** 3.6 nM

**Q.** For Cc1nccn2c([C@@H]3CCCN(C#N)C3)nc(-c3ccc(C(=O)Nc4cc(C5CC5)ccn4)cc3)c12 [Example 8, 4-{3-[(3R)-1-cyanopiperidin-3-yl]-8-methylimidazo[1,5-a]pyrazin-1-yl}-N-(4-cyclopropylpyridin-2-yl)benzamide], which IC50 is on record?
**A.** 46.8 nM

**Q.** For N#CN1CCO[C@@H](c2nc(-c3ccc(C(=O)Nc4cc(C(F)(F)F)ccn4)cc3)c3c(N)nccn23)C1 [Example 11, 4-{8-amino-3-[(2R)-4-cyanomorpholin-2-yl]imidazo[1,5-a]pyrazin-1-yl}-N-[4-(trifluoromethyl)pyridin-2-yl]benzamide], which IC50 is on record?
**A.** 0.78 nM

**Q.** Which IC50 does the source give for CCOc1cc(C(=O)Nc2cc(C(F)(F)F)ccn2)ccc1-c1nc([C@@H]2CCCN(C#N)C2)n2ccnc(N)c12 [Example 19, 4-{8-amino-3-[(3R)-1-cyanopiperidin-3-yl]imidazo[1,5-a]pyrazin-1-yl}-3-ethoxy-N-[4-(trifluoromethyl)pyridin-2-yl]benzamide] here?
**A.** 0.68 nM

**Q.** With Cc1ccnc(NC(=O)c2ccc(-c3nc([C@@H]4CCCN(C#N)C4)n4ccnc(N)c34)cc2)c1 [Example 14, 4-{8-amino-3-[(3R)-1-cyanopiperidin-3-yl]imidazo[1,5-a]pyrazin-1-yl}-N-(4-methylpyridin-2-yl)benzamide] as the compound, how does the IC50 read?
**A.** 0.24 nM

**Q.** How did the IC50 turn out when N#CN1CCC[C@@H](c2nc(-c3ccc(C(=O)Nc4cc(C(F)F)ccn4)cc3)c3c(N)nccn23)C1 [Example 16, 4-{8-amino-3-[(3R)-1-cyanopiperidin-3-yl]imidazo[1,5-a]pyrazin-1-yl}-N-[4-(difluoromethyl)pyridin-2-yl]benzamide] was run?
**A.** 0.29 nM

**Q.** Which IC50 does the source give for CCOc1cc(C(=O)Nc2cc(C(F)(F)F)ccn2)ccc1-c1nc([C@@H]2CC[C@H](C)N(C#N)C2)n2c(Cl)cnc(N)c12 [Example 23, 4-{8-amino-5-chloro-3-[(3R,6S)-1-cyano-6-methylpiperidin-3-yl]imidazo[1,5-a]pyrazin-1-yl}-3-ethoxy-N-[4-(trifluoromethyl)pyridin-2-yl]benzamide] here?
**A.** 2.2 nM

**Q.** N#CN1CCC[C@H]1c1nc(-c2ccc(C(=O)Nc3cc(C4CC4)ccn3)cc2)c2c(N)nccn12 [Example 9, 4-{8-amino-3-[(2S)-1-cyanopyrrolidin-2-yl]imidazo[1,5-a]pyrazin-1-yl}-N-(4-cyclopropylpyridin-2-yl)benzamide] was tested. Which IC50 did it give?
**A.** 67.6 nM

**Q.** With N#CN1CCOC(c2nc(-c3ccc(C(=O)Nc4cc(C(F)(F)F)ccn4)cc3)c3c(N)nccn23)C1 (centres unmarked) [Example 6, 4-[8-amino-3-(4-cyanomorpholin-2-yl)imidazo[1,5-a]pyrazin-1-yl]-N-[4-(trifluoromethyl)pyridin-2-yl]benzamide] as the compound, how does the IC50 read?
**A.** 3.9 nM

**Q.** For N#CN1CCC[C@H]1c1nc(-c2ccc(C(=O)Nc3ccccn3)cc2)c2c(N)nccn12 [Example 3, 4-{8-amino-3-[(2S)-1-cyanopyrrolidin-2-yl]imidazo[1,5-a]pyrazin-1-yl}-N-pyridin-2-ylbenzamide], which IC50 is on record?
**A.** 60.3 nM

**Q.** For N#CN1CCC[C@@H](c2nc(-c3ccc(C(=O)Nc4cc(C5CC5)ccn4)cc3)c3c(N)nccn23)C1 [Example 7, 4-{8-amino-3-[(3R)-1-cyanopiperidin-3-yl]imidazo[1,5-a]pyrazin-1-yl}-N-(4-cyclopropylpyridin-2-yl)benzamide], which IC50 is on record?
**A.** 1.8 nM

**Q.** N#CN1CCC[C@@H](c2nc(-c3ccc(C(=O)Nc4ccccn4)cc3)c3c(N)nccn23)C1 [Example 2, 4-{8-amino-3-[(3R)-1-cyanopiperidin-3-yl]imidazo[1,5-a]pyrazin-1-yl}-N-pyridin-2-ylbenzamide] was tested. Which IC50 did it give?
**A.** 1.5 nM

**Q.** For COCc1cnc(N)c2c(-c3ccc(C(=O)Nc4cc(C(F)(F)F)ccn4)cc3F)nc([C@@H]3CCCN(C#N)C3)n12 [Example 18, 4-{8-amino-3-[(3R)-1-cyanopiperidin-3-yl]-5-(methoxymethyl)imidazo[1,5-a]pyrazin-1-yl}-3-fluoro-N-[4-(trifluoromethyl)pyridin-2-yl]benzamide], which IC50 is on record?
**A.** 0.92 nM

**Q.** With N#CN1CCO[C@@H](c2nc(-c3ccc(C(=O)Nc4cc(C5CC5)ccn4)cc3)c3c(N)nccn23)C1 [Example 12, 4-{8-amino-3-[(2R)-4-cyanomorpholin-2-yl]imidazo[1,5-a]pyrazin-1-yl}-N-(4-cyclopropylpyridin-2-yl)benzamide] as the compound, how does the IC50 read?
**A.** 1 nM

**Q.** For C[C@H]1CC[C@@H](c2nc(-c3ccc(C(=O)Nc4ccccn4)cc3)c3c(N)nccn23)CN1C#N [Example 10, 4-{8-amino-3-[(3R,6S)-1-cyano-6-methylpiperidin-3-yl]imidazo[1,5-a]pyrazin-1-yl}-N-pyridin-2-ylbenzamide], which IC50 is on record?
**A.** 3.1 nM

**Q.** For COc1ccnc(NC(=O)c2ccc(-c3nc([C@@H]4CCCN(C#N)C4)n4ccnc(N)c34)cc2)c1 [Example 15, 4-{8-amino-3-[(3R)-1-cyanopiperidin-3-yl]imidazo[1,5-a]pyrazin-1-yl}-N-(4-methoxypyridin-2-yl)benzamide], which IC50 is on record?
**A.** 0.41 nM

**Q.** Which IC50 does the source give for N#CN1CCC[C@H]1c1nc(-c2ccc(C(=O)Nc3cc(F)ccn3)cc2)c2c(N)nccn12 [Example 4, 4-{8-amino-3-[(2S)-1-cyanopyrrolidin-2-yl]imidazo[1,5-a]pyrazin-1-yl}-N-(4-fluoropyridin-2-yl)benzamide] here?
**A.** 49 nM

**Q.** For COc1cc(C(=O)Nc2cc(C(F)(F)F)ccn2)ccc1-c1nc([C@H]2CN(C#N)CCO2)n2ccnc(N)c12 [Example 22, 4-{8-amino-3-[(2R)-4-cyanomorpholin-2-yl]imidazo[1,5-a]pyrazin-1-yl}-3-methoxy-N-[4-(trifluoromethyl)pyridin-2-yl]benzamide], which IC50 is on record?
**A.** 0.6 nM

**Q.** How did the IC50 turn out when N#CN1CCC[C@@H](c2nc(-c3ccc(C(=O)Nc4cc(C(F)(F)F)ccn4)cc3F)c3c(N)nccn23)C1 [Example 13, 4-{8-amino-3-[(3R)-1-cyanopiperidin-3-yl]imidazo[1,5-a]pyrazin-1-yl}-3-fluoro-N-[4-(trifluoromethyl)pyridin-2-yl]benzamide] was run?
**A.** 0.36 nM

Reference: patent US20180079752A1, “BTK INHIBITORS” (MERCK SHARP & DOHME CORP., priority 2015, published 2018)
